Measurements reported in BindingDB's records for doi:10.1016/j.chembiol.2014.09.011 (Astrazeneca R&D, 2014).

Assays:
Assay in all cases: AMPD Enzymatic Activity Assay
Settings in all cases: pH 7.4
[1] = biological target: T1, AMP deaminase 1 (Rattus norvegicus, UniProt P10759)
T1 sequence (P10759 whole entry): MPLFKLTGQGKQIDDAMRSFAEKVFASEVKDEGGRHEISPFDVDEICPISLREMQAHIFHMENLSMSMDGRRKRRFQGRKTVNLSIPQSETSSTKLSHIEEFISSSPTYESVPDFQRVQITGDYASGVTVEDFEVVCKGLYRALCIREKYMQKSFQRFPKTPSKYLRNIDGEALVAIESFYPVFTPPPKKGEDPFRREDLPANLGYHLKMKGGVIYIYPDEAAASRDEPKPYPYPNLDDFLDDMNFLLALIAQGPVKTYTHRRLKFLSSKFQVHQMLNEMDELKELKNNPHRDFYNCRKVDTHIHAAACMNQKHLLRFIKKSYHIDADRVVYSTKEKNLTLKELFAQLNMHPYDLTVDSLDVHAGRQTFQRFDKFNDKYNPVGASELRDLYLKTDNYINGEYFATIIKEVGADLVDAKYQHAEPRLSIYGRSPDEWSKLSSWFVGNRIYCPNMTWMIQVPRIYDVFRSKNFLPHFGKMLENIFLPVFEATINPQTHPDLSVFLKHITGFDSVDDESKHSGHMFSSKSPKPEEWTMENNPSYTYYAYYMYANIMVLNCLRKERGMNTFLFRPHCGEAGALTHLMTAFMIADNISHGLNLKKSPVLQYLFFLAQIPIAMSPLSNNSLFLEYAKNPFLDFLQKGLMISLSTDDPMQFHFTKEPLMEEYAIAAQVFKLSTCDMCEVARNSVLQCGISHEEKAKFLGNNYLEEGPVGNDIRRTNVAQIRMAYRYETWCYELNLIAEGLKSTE
Procedure: (§1) AMPD1 was added to buffer A (50 mM HEPES, 150 mM KCl, 5 mM MgCl2, and 0.5 mMglutathione [pH 7.4]) to a concentration of 10 nM. A substrate mix consistingof 2mMNADPH, 6mMa-ketoglutarate, 8mMAMP, and 15 U GDH was prepared in buffer A. Substrate mix ([…]) was added to the plate, followed by centrifugation and incubation for 1 hr. Detection was by absorbance at 340 nm following the conversion of NADPH to NADP+. Recombinant AMPD enzyme activity assays were performed in a 384-well format using the same conditions as described above, except the assay volume was […] and the AMP concentration for the AMPD2 assay was 8 mM. Different AMPD enzyme concentrations were used to have linear reactions: hAMPD1 (4 nM), hAMPD2 (38 nM), hAMPD3 (1 nM), rAMPD1 (116 nM), rAMPD2 (53 nM), rAMPD3 (31 nM), and mAMPD1 (816 nM).

[2] = biological target: T2, AMP deaminase 1 (Homo sapiens, UniProt P23109)
T2 sequence (P23109 whole entry): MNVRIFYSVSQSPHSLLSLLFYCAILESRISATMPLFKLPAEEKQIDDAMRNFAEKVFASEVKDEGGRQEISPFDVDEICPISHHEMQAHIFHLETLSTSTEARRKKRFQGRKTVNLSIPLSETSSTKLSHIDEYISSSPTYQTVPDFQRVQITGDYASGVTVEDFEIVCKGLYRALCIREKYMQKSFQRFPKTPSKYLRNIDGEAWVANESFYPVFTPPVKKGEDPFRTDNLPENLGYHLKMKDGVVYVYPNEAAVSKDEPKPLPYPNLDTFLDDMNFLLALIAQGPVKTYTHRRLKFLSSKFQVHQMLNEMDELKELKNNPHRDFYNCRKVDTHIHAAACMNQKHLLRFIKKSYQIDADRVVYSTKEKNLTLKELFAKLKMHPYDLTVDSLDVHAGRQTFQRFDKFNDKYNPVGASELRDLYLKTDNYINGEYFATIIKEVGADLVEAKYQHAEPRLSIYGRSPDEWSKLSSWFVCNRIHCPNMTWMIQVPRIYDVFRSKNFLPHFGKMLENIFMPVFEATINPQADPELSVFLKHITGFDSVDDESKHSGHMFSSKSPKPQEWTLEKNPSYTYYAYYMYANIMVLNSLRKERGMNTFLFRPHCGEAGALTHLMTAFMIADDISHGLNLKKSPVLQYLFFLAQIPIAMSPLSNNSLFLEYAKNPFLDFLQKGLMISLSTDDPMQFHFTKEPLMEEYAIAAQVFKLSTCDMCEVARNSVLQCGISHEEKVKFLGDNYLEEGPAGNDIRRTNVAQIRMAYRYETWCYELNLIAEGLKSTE
Procedure: as §1

[3] = biological target: T3, AMP deaminase 3 (Homo sapiens, UniProt Q01432)
T3 sequence (Q01432 whole entry): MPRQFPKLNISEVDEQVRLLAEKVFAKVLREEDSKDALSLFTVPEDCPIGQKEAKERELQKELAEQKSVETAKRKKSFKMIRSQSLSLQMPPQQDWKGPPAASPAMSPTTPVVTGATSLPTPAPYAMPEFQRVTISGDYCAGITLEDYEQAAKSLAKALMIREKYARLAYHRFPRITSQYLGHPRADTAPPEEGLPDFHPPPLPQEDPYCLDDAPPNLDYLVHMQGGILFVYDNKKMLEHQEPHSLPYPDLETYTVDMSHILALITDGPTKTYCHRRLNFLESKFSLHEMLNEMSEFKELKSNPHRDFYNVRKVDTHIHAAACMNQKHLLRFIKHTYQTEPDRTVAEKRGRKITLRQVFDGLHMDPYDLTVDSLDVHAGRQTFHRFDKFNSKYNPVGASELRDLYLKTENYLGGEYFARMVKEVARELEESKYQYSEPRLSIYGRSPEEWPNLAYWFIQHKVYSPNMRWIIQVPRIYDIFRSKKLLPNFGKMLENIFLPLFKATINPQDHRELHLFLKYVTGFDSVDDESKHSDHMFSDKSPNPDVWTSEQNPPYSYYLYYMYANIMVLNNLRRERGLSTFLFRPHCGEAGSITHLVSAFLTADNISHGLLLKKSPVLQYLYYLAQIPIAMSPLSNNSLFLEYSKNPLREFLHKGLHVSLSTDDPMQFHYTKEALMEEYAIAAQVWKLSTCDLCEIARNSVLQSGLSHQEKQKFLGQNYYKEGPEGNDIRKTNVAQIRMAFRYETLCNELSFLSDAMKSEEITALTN
Procedure: as §1

| IC50 [1] [nM] | IC50 [2] [nM] | IC50 [3] [nM] | SMILES |
| --- | --- | --- | --- |
| 27 | 38 | 75 | C[C@H](NCc1ccc(-c2ccc(C(=O)O)cn2)cc1)c1cccc2ccncc12 [6-[4-({[(1S)-1-(isoquinolin-8-yl)ethyl]amino}methyl)phenyl]pyridine-3-carboxylic acid (Compound 3)] |
| 5800 | 9200 | 7300 | C[C@@H](NCc1ccc(-c2ccc(C(=O)O)cn2)cc1)c1cccc2ccncc12 [6-[4-({[(1R)-1-(isoquinolin-8-yl)ethyl]amino}methyl)phenyl]pyridine-3-carboxylic acid (Compound 2)] |
